Assay results taken from US8110580B2, “Thiophene pyrazolopyrimidine compounds” (Eli Lilly and Company, priority 2006, dated 2012).
Changes are numbered by the printed parent chain.

Tests used:
human CRF1 = target: T1, human CRF1 (Homo sapiens, UniProt P34998); assay: CRF1 filter binding assay; conditions: HEK-hCRF1 membranes; 125I-Sauvagine (4 nM) in roller/adherent cells; read-out: Ki (inhibition constant), inhibition of binding of 125I-Sauvagine
T1 construct: expressed in transfected cells
T1 sequence (P34998 24-415): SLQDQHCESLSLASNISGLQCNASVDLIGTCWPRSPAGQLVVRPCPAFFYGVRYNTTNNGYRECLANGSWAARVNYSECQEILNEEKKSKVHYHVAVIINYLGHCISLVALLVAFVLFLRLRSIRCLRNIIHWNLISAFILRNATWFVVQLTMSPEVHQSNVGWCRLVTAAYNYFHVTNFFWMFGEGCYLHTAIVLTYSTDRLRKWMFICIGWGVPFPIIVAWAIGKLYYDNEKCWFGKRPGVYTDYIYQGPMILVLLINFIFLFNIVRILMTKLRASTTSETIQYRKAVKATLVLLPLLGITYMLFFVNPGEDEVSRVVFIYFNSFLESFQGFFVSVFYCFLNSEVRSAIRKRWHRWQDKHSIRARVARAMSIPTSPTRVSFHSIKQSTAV
Protocol: The limitations of plasmid-based human CRF1 expression, in terms of generating a recombinant cell line with sufficient receptor density to develop a binding assay, are overcome by using a Phoenix retroviral expression system licensed from Stanford. The stable HEK-hCRF1 cell line is used to prepare membranes and binding reactions (200 μl) are set up as follows: 50 μl of ^125I-sauvagine (0.2 nM final), 50 μl compound and 100 μl CRF1 membrane (25 μg/reaction). The reactions are incubated at room temperature for 2 hours and then terminated by filtration through pre-treated FB Millipore glass fiber filter plates (96 well). The plates are wash twice with ice-cold assay buffer (50 mM tris, 12.5 mM NaCl, 1 mM EDTA, 10 mM MgCl2, 0.05% BSA, pH 7.2), air dried over night and counted with 100 μl Microscint 40 in a MicroBeta counter. Non-specific binding (NSB) is determined in the presence of 0.5 μM non-labeled sauvagine. Triplicate determinations are typically run and the median data points plotted by Graph Pad Prism.
Using this assay, the exemplified compounds of the present invention (except for Examples 2, 3, 6, 7, and 8, which were used as intermediates for other Examples and were not tested.) inhibit the binding of ^125I-Sauvagine (4 nM) in roller/adherent cells with a Ki (inhibition constant)≦500 nM.

human CRF2 = target: T2, human CRF2 (Homo sapiens, UniProt Q13324); assay: CRF2 filter binding assay; conditions: HEK-hCRF2 membranes; compound concentration 50 μM
T2 construct: expressed in transfected cells
T2 sequence (Q13324 1-411): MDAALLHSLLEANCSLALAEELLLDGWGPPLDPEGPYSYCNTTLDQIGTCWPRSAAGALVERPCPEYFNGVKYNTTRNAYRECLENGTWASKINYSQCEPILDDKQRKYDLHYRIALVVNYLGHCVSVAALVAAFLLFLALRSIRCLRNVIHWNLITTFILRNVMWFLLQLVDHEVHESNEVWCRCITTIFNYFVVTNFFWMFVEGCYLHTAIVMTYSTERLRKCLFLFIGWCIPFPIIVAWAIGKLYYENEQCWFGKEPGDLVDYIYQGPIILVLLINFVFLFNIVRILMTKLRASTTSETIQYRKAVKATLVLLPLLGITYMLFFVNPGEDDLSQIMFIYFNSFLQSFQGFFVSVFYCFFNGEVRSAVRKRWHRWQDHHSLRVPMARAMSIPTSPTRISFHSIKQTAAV
Protocol: The limitations of plasmid-based human CRF2 expression, in terms of generating a recombinant cell line with sufficient receptor density to develop a binding assay, are overcome by using a Phoenix retroviral expression system licensed from Stanford. The stable HEK-hCRF2 cell line is used to prepare membranes and binding reactions (200 μl) are set up as follows: 50 ul of ^125I-sauvagine (0.2 nM final concentration), 50 μl compound and 100 μl CRF2 membrane (25 μg/reaction). The reactions are incubated at room temperature for 2 hours and then terminated by filtration through pre-treated FB Millipore glass fiber filter plates (96 well). The plates are washed twice with ice-cold assay buffer (50 mM tris, 12.5 mM NaCl, 1 mM EDTA, 10 mM MgCl2, 0.05% BSA, pH 7.2), air dried over night and counted with 100 μl Microscint 40 in a MicroBeta counter. Non-specific binding (NSB) is determined in the presence of 0.5 μM non-labeled sauvagine. Alternatively, compounds are evaluated using a Scintillation Proximity assay. […] Bound radioactivity is assessed using a Wallac Trilux scintillation counter. Binding is assessed typically using triplicate determinations and the median data points plotted by Graph Pad Prism. […]

[1] = target: T3, binding of 125I-sauvagine to the cerebellum (Rattus norvegicus, UniProt P35353); assay: In vivo potency assessment using ex vivo binding; conditions: oral route
T3 construct: from tissue; host or cells: rat cerebellum
T3 sequence (P35353 24-415): T1 sequence (P34998 24-415) with H6R, S9N, A13T, I16V, M153V, G163A, I209V, Y229H, H356R
Protocol: To assess in vivo potency, a compound of the present invention is evaluated using ex vivo binding. Using the procedures as provided in D. R. Gehlert et al., EJP 509: 145-153 (2005), a compound is administered to a rat via the oral route.

Structure (SMILES): CCCC(CCC)c1cc(C)nc2c(-c3sc(-c4ncnn4C)cc3Cl)c(C)nn12 [Example 20, 3-[3-Chloro-5-(2-methyl-2H-[1,2,4]triazole-3-yl)-thiophene-2-yl]-7-(1-propyl-butyl)-2,5-dimethyl-pyrazolo[1,5-a]pyrimidine]
- Ki (human CRF1): 4.4 nM
- inhibition at 50 µM (human CRF2): 39%
- inhibition at 10 mg/kg [1]: 74%
